In PubChem BioAssay (NCI):
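Exposure lasted 48 hours, with cells grown in 96-well plates and compounds tested at five concentrations. Abbreviation: GI50, concentration required for 50% inhibition of growth. At the TGI there is no net growth.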

Assays:
Test in all cases: growth of human tumour cells (NCI), 48 h
[1] = system: NCI-H522 lung
[2] = system: MCF7 breast
[3] = system: OVCAR-8 ovarian
[4] = system: SF-539 CNS
[5] = system: RXF 393 renal
[6] = system: HCT-15 colon
[7] = system: OVCAR-5 ovarian
[8] = system: SF-268 CNS
[9] = system: BT-549 breast
[10] = system: NCI-H23 lung
[11] = system: IGROV1 ovarian
[12] = system: OVCAR-3 ovarian
[13] = system: UACC-62 melanoma
[14] = system: HT29 colon
[15] = system: HCT-116 colon
[16] = system: A498 renal
[17] = system: U251 CNS
[18] = system: PC-3 prostate
[19] = system: TK-10 renal
[20] = system: KM12 colon
[21] = system: SNB-75 CNS
[22] = system: MDA-MB-468 breast
[23] = system: COLO 205 colon
[24] = system: HOP-92 NSCLC
[25] = system: RPMI-8226 leukemia
[26] = system: SNB-19 CNS
[27] = system: SK-MEL-2 melanoma
[28] = system: MALME-3M melanoma
[29] = system: UO-31 renal
[30] = system: SK-MEL-28 melanoma
[31] = system: NCI-H460 lung
[32] = system: DU-145 prostate
[33] = system: HL-60(TB) leukemia
[34] = system: 786-0 renal
[35] = system: OVCAR-4 ovarian
[36] = system: CAKI-1 renal
[37] = system: MOLT-4 leukemia
[38] = system: SK-MEL-5 melanoma
[39] = system: UACC-257 melanoma
[40] = system: HS 578T breast
[41] = system: MDA-MB-435
[42] = system: ACHN renal
[43] = system: MDA-MB-231 breast
[44] = system: EKVX NSCLC
[45] = system: SK-OV-3 ovarian
[46] = system: SW-620 colon
[47] = system: K-562 leukemia
[48] = system: NCI-H226 lung
[49] = system: HCC-2998 colon
[50] = system: SF-295 CNS
[51] = system: M14 melanoma
[52] = system: SN12C renal
[53] = system: A549 NSCLC
[54] = system: SR leukemia
[55] = system: T-47D breast
[56] = system: CCRF-CEM leukemia
[57] = system: HOP-62 NSCLC
[58] = system: NCI/ADR-RES ovarian
[59] = system: LOX IMVI melanoma

## N#Cc1c(-c2ccc(Cl)cc2)nc2n[nH]c(-c3ccc(Cl)cc3)c2c1-c1ccc(C(F)(F)F)cc1
[1]
  GI50: 2.03 µM
  TGI: 5.68 µM
[2]
  GI50: 2430 nM
  TGI: 10.8 µM
[3]
  GI50: 3.23 µM
  TGI: 12.5 µM
[4]
  GI50: 1.85 µM
  TGI: 3.76 µM
[5]
  GI50: 2640 nM
  TGI: 9.54 µM
[6]
  GI50: 2570 nM
  TGI: 10.4 µM
[7]
  GI50: 2160 nM
  TGI: 5.22 µM
[8]
  GI50: 2.92 µM
  TGI: 11.5 µM
[9]
  GI50: 2.17 µM
  TGI: 4.78 µM
[10]
  GI50: 2.24 µM
  TGI: 7.68 µM
[11]
  GI50: 1.92 µM
  TGI: 6.49 µM
[12]
  GI50: 2190 nM
  TGI: 5.07 µM
[13]
  GI50: 1.87 µM
  TGI: 5.57 µM
[14]
  GI50: 2770 nM
  TGI: 10.9 µM
[15]
  GI50: 1610 nM
  TGI: 3.74 µM
[16]
  GI50: 3100 nM
  TGI: 8.71 µM
[17]
  GI50: 3.03 µM
  TGI: 11.2 µM
[18]
  GI50: 2250 nM
  TGI: 9.31 µM
[19]
  GI50: 3990 nM
  TGI: 15.6 µM
[20]
  GI50: 2490 nM
  TGI: 8.32 µM
[21]
  GI50: 1750 nM
  TGI: 6.59 µM
[22]
  GI50: 2.59 µM
  TGI: 9.55 µM
[23]
  GI50: 1.71 µM
  TGI: 3.24 µM
[24]
  GI50: 1570 nM
  TGI: 4.37 µM
[25]
  GI50: 1.93 µM
  TGI: 6.27 µM
[26]
  GI50: 3.38 µM
  TGI: 14.7 µM
[27]
  GI50: 1.72 µM
  TGI: 3.26 µM
[28]
  GI50: 1.98 µM
  TGI: 4.86 µM
[29]
  GI50: 2100 nM
  TGI: 8.61 µM
[30]
  GI50: 2680 nM
  TGI: 8.7 µM
[31]
  GI50: 2080 nM
  TGI: 4.57 µM
[32]
  GI50: 3.6 µM
  TGI: 15.9 µM
[33]
  GI50: 1790 nM
  TGI: 4.79 µM
[34]
  GI50: 2570 nM
  TGI: 7.55 µM
[35]
  GI50: 2500 nM
  TGI: 8.38 µM
[36]
  GI50: 2000 nM
  TGI: 7.2 µM
[37]
  GI50: 1720 nM
  TGI: 6.12 µM
[38]
  GI50: 1920 nM
  TGI: 3.79 µM
[39]
  GI50: 2720 nM
  TGI: 8 µM
[40]
  GI50: 2230 nM
  TGI: 7.18 µM
[41]
  GI50: 2100 nM
  TGI: 4.86 µM
[42]
  GI50: 2850 nM
  TGI: 9.97 µM
[43]
  GI50: 2120 nM
  TGI: 4.64 µM
[44]
  GI50: 2710 nM
  TGI: 11.4 µM
[45]
  GI50: 3030 nM
  TGI: 10.2 µM
[46]
  GI50: 2760 nM
  TGI: 10.8 µM
[47]
  GI50: 2.09 µM
  TGI: 5.91 µM
[48]
  GI50: 2370 nM
  TGI: 8.97 µM
[49]
  GI50: 2290 nM
  TGI: 5.36 µM
[50]
  GI50: 2620 nM
  TGI: 8.3 µM
[51]
  GI50: 2.17 µM
  TGI: 5.53 µM
[52]
  GI50: 2590 nM
  TGI: 8.35 µM
[53]
  GI50: 3.45 µM
  TGI: 12 µM
[54]
  GI50: 1.69 µM
  TGI: 4.42 µM
[55]
  GI50: 2530 nM
  TGI: 8.38 µM
[56]
  GI50: 2.18 µM
  TGI: 6.57 µM
[57]
  GI50: 3060 nM
  TGI: 9.84 µM

## Cc1noc2c(Cc3ccccc3)nn(CC(=O)N/N=C/c3ccc(Cl)cc3)c(=O)c12
[1]
  GI50: 15.4 µM
  TGI: > 100 µM
[3]
  GI50: 3.18 µM
  TGI: > 100 µM
[4]
  GI50: 14.1 µM
  TGI: 35.9 µM
[5]
  GI50: 2150 nM
  TGI: 6.87 µM
[6]
  GI50: > 100000 nM
  TGI: > 100 µM
[8]
  GI50: 7.82 µM
  TGI: > 100 µM
[9]
  GI50: 23.8 µM
  TGI: 90.6 µM
[10]
  GI50: 10.2 µM
  TGI: 53.7 µM
[11]
  GI50: 6.95 µM
  TGI: 31.2 µM
[58]
  GI50: 4.93 µM
  TGI: > 100 µM
[13]
  GI50: 18.3 µM
  TGI: 86 µM
[14]
  GI50: > 100000 nM
  TGI: > 100 µM
[15]
  GI50: 3160 nM
  TGI: > 100 µM
[16]
  GI50: 1650 nM
  TGI: 3.11 µM
[17]
  GI50: 3.64 µM
  TGI: > 100 µM
[18]
  GI50: > 100000 nM
  TGI: > 100 µM
[19]
  GI50: 1900 nM
  TGI: 4.74 µM
[20]
  GI50: > 100000 nM
  TGI: > 100 µM
[21]
  GI50: 1590 nM
  TGI: 4.36 µM
[22]
  GI50: 8.11 µM
  TGI: 36.2 µM
[23]
  GI50: 5.04 µM
  TGI: > 100 µM
[24]
  GI50: 3010 nM
  TGI: 16.6 µM
[25]
  GI50: 8.98 µM
  TGI: > 100 µM
[26]
  GI50: 8.48 µM
  TGI: 26.7 µM
[27]
  GI50: 19.1 µM
  TGI: 38.4 µM
[28]
  GI50: 4.23 µM
  TGI: 29.1 µM
[59]
  GI50: 5.61 µM
  TGI: > 100 µM
[30]
  GI50: > 100000 nM
  TGI: > 100 µM
[32]
  GI50: > 100 µM
  TGI: > 100 µM
[33]
  GI50: > 100000 nM
  TGI: > 100 µM
[34]
  GI50: 1940 nM
  TGI: 3.84 µM
[36]
  GI50: 2880 nM
  TGI: 11.1 µM
[37]
  GI50: > 100000 nM
  TGI: > 100 µM
[39]
  GI50: > 100000 nM
  TGI: > 100 µM
[40]
  GI50: 2310 nM
  TGI: 6.23 µM
[41]
  GI50: > 100000 nM
  TGI: > 100 µM
[43]
  GI50: 2590 nM
  TGI: 7.3 µM
[45]
  GI50: 2340 nM
  TGI: 5.85 µM
[46]
  GI50: > 100000 nM
  TGI: > 100 µM
[47]
  GI50: 88.6 µM
  TGI: > 100 µM
[50]
  GI50: 3190 nM
  TGI: 8.64 µM
[51]
  GI50: 43.6 µM
  TGI: > 100 µM
[53]
  GI50: 3.87 µM
  TGI: > 100 µM
[54]
  GI50: 31.2 µM
  TGI: > 100 µM
[56]
  GI50: 21.1 µM
  TGI: > 100 µM
[57]
  GI50: 2060 nM
  TGI: 4.97 µM
